Source: ChEMBL document CHEMBL3779859, “Synergistic activity of a short lipidated antimicrobial peptide (lipoAMP) and colistin or tobramycin against Pseudomonas aeruginosa from cystic fibrosis patients” (Medchemcomm, 2016)
Converted amounts (≈) assume the structure as drawn. The source made the active and inactive calls. The rule behind the calls is not given here. Peptide text beside a SMILES is read from it. * marks the point of attachment. Decanoyl = CCCCCCCCCC(=O)*

What was measured:
Pseudomonas aeruginosa [1] = assay: Antibacterial activity against Pseudomonas aeruginosa KD491 clinical isolate after 16 to 20 hrs by microdilution assay; format: functional
Pseudomonas aeruginosa [2] = assay: Antibacterial activity against Pseudomonas aeruginosa KD491 clinical isolate assessed as inhibition of biofilm formation at 32 ug/ml after 18 to 22 hrs by crystal violet staining-based polystyrene microtiter plate reader method; format: functional
Pseudomonas aeruginosa [3] = assay: Antibacterial activity against Pseudomonas aeruginosa KD491 clinical isolate assessed as growth inhibition at 8 ug/ml measured every 15 mins by microtiter plate reader method in presence of 1 ug/ml tobramycin; format: functional, organism-based
Pseudomonas aeruginosa [4] = assay: Antibacterial activity against Pseudomonas aeruginosa MIDLANDS clinical isolate after 16 to 20 hrs by microdilution assay; format: functional
Pseudomonas aeruginosa [5] = assay: Antibacterial activity against Pseudomonas aeruginosa kl 3.2 clinical isolate after 16 to 20 hrs by microdilution assay; format: functional
Pseudomonas aeruginosa [6] = assay: Antibacterial activity against Pseudomonas aeruginosa LESB58 clinical isolate assessed as delay in growth at 4 to 32 ug/ml measured every 15 mins by microtiter plate reader method; format: functional, organism-based
Pseudomonas aeruginosa [7] = assay: Antibacterial activity against Pseudomonas aeruginosa VW178 clinical isolate after 16 to 20 hrs by microdilution assay; format: functional
Pseudomonas aeruginosa [8] = assay: Antibacterial activity against Pseudomonas aeruginosa PAO1 clinical isolate assessed as delay in growth rate in exponential phase of bacterial growth curve at 4 to 32 ug/ml measured every 15 mins by microtiter plate reader method; format: functional, organism-based
Pseudomonas aeruginosa [9] = assay: Antibacterial activity against Pseudomonas aeruginosa PAO1 clinical isolate assessed as growth inhibition at 32 ug/ml measured every 15 mins by microtiter plate reader method in presence of […] ug/ml tobramycin; format: functional, organism-based
Pseudomonas aeruginosa [10] = assay: Antibacterial activity against Pseudomonas aeruginosa KD491 clinical isolate assessed as inhibition of biofilm formation at 2 ug/ml after 18 to 22 hrs by crystal violet staining-based polystyrene microtiter plate reader method; format: functional
Pseudomonas aeruginosa [11] = assay: Antibacterial activity against Pseudomonas aeruginosa Clone C clinical isolate assessed as inhibition of biofilm formation at 8 ug/ml after 24 hrs by propidium iodide staining-based confocal laser microscopy; format: functional, organism-based
Pseudomonas aeruginosa [12] = assay: Antibacterial activity against Pseudomonas aeruginosa VW313 clinical isolate after 16 to 20 hrs by microdilution assay; format: functional
Pseudomonas aeruginosa [13] = assay: Antibacterial activity against Pseudomonas aeruginosa LESB58 clinical isolate assessed as growth inhibition at 32 ug/ml measured every 15 mins by microtiter plate reader method in presence of 1 ug/ml tobramycin; format: functional, organism-based
Pseudomonas aeruginosa [14] = assay: Antibacterial activity against Pseudomonas aeruginosa PAO1 clinical isolate assessed as inhibition of biofilm formation at 32 ug/ml after 18 to 22 hrs by crystal violet staining-based polystyrene microtiter plate reader method in presence of 2 ug/ml colistin; format: functional
Pseudomonas aeruginosa [15] = assay: Antibacterial activity against Pseudomonas aeruginosa Clone C clinical isolate assessed as delay in growth rate in exponential phase of bacterial growth curve at 8 to 16 ug/ml measured every 15 mins by microtiter plate reader method; format: functional, organism-based
Pseudomonas aeruginosa [16] = assay: Antibacterial activity against Pseudomonas aeruginosa PAO1 clinical isolate assessed as inhibition of biofilm formation at 64 ug/ml after 18 to 22 hrs by crystal violet staining-based polystyrene microtiter plate reader method; format: functional
Pseudomonas aeruginosa [17] = assay: Antibacterial activity against Pseudomonas aeruginosa PAO1 clinical isolate after 18 to 22 hrs by checkerboard method in presence of tobramycin; format: functional
Pseudomonas aeruginosa [18] = assay: Antibacterial activity against Pseudomonas aeruginosa LESB58 clinical isolate after 18 to 22 hrs by checkerboard method in presence of tobramycin; format: functional
Pseudomonas aeruginosa [19] = assay: Antibacterial activity against Pseudomonas aeruginosa Clone C clinical isolate assessed as inhibition of biofilm formation at 128 ug/ml after 18 to 22 hrs by crystal violet staining-based polystyrene microtiter plate reader method; format: functional
Pseudomonas aeruginosa [20] = assay: Antibacterial activity against Pseudomonas aeruginosa KD491 clinical isolate assessed as delay in growth rate in exponential phase of bacterial growth curve at 4 to 8 ug/ml measured every 15 mins by microtiter plate reader method; format: functional, organism-based
Pseudomonas aeruginosa [21] = assay: Antibacterial activity against Pseudomonas aeruginosa VW1471 clinical isolate after 16 to 20 hrs by microdilution assay; format: functional

MIC (Pseudomonas aeruginosa [1]): 16 µg/mL (≈ 12.1 µM) | MIC (Pseudomonas aeruginosa [4]): 64 µg/mL (≈ 48.2 µM) | MIC (Pseudomonas aeruginosa [5]): 128 µg/mL (≈ 96.4 µM) | MIC (Pseudomonas aeruginosa [7]): 32 µg/mL (≈ 24.1 µM) | MIC (Pseudomonas aeruginosa [12]): 32 µg/mL (≈ 24.1 µM) | MIC (Pseudomonas aeruginosa [21]): 64 µg/mL (≈ 48.2 µM)
SMILES: CCCCCCCCCC(=O)NCCCC[C@H](NC(=O)[C@H](Cc1c[nH]c2ccccc12)NC(=O)[C@H](CCCNC(=N)N)NC(=O)[C@H](Cc1c[nH]c2ccccc12)NC(=O)[C@H](CCCNC(=N)N)NC(=O)[C@H](Cc1c[nH]c2ccccc12)NC(=O)[C@@H](N)CCCNC(=N)N)C(=O)O (H-RWRWRWK(Decanoyl)-OH)
inhibition at 32 µg/mL (Pseudomonas aeruginosa [2]): 80% | growth inhibition (GI) (Pseudomonas aeruginosa [3]): Active | Activity (Pseudomonas aeruginosa [6]): Active | Activity (Pseudomonas aeruginosa [8]): Active | growth inhibition (GI) (Pseudomonas aeruginosa [9]): Active | inhibition at 2 µg/mL (Pseudomonas aeruginosa [10]): 45% | inhibition (Pseudomonas aeruginosa [11]): inactive | growth inhibition (GI) (Pseudomonas aeruginosa [13]): Active | inhibition (INH) (Pseudomonas aeruginosa [14]): 84% | Activity (Pseudomonas aeruginosa [15]): Active | inhibition at 64 µg/mL (Pseudomonas aeruginosa [16]): 81% | fractional inhibitory concentration index (FICI) (Pseudomonas aeruginosa [17]): 0.75 | fractional inhibitory concentration index (FICI) (Pseudomonas aeruginosa [18]): 0.5 | inhibition at 128 µg/mL (Pseudomonas aeruginosa [19]): 82% | Activity (Pseudomonas aeruginosa [20]): Active
